Results as given in DBAASP.
In brackets after ≈: the same amount, converted by molar mass.

Assays:
Experiment in all cases: ≥ marks a high value that may be exact or a test limit, other limits are often not marked, values filed in µg/mL are converted to µM
[1] = system: Bacillus subtilis
[2] = system: Candida albicans
[3] = system: Escherichia coli
[4] = system: Staphylococcus aureus
[5] = system: Bacillus cereus
[6] = system: Acinetobacter baumannii ATCC 19606
[7] = system: Escherichia coli ATCC 25922
[8] = system: Pseudomonas aeruginosa ATCC 27853
[9] = system: Staphylococcus aureus ATCC 25923

MIC [3]	MIC [4]	MIC [5]	SMILES	also measured
3.01 µM (≈ 9.37 µg/mL)	1.5 µM (≈ 4.68 µg/mL)		CC[C@H](C)[C@H](NC(=O)[C@H](CCCN=C(N)N)NC(=O)[C@@H](NC(=O)[C@@H]1CCCN1C(=O)[C@H](CCCN=C(N)N)NC(=O)[C@@H](NC(=O)[C@@H]1CCCN1C(=O)[C@H](CC(C)C)NC(=O)[C@H](CC(C)C)NC(=O)CNC(=O)[C@H](Cc1cnc[nH]1)NC(=O)[C@@H]1CCCN1C(=O)CNC(=O)[C@H](Cc1ccccc1)NC(=O)[C@H](CC(=O)O)NC(=O)[C@H](Cc1c[nH]c2ccccc12)NC(=O)[C@H](C)NC(=O)[C@@H](NC(=O)[C@H](C)N)[C@@H](C)O)[C@@H](C)CC)[C@@H](C)CC)C(=O)N[C@@H](CCCN=C(N)N)C(=O)N1CCC[C@H]1C(=O)N[C@@H](CC(C)C)C(=O)N[C@@H](CS)C(=O)NCC(=O)N[C@@H](CCCCN)C(=O)N[C@@H](CC(=O)O)C(=O)N[C@@H](CCCCN)C(=O)N[C@@H](CO)C(=O)O [ATAWDFGPHGLLPIRPIRIRPLCGKDKS]	MIC [1]: 24.1 µM (≈ 75 µg/mL); MIC [2]: 6.02 µM (≈ 18.8 µg/mL)
7.1 µM (≈ 16 µg/mL)	56.8 µM (≈ 128 µg/mL)	≥ 56.8 µM	CC(C)C[C@H](NC(=O)[C@H](CCCCN)NC(=O)[C@H](Cc1ccccc1)NC(=O)[C@@H](NC(=O)[C@H](CCCCN)NC(=O)CNC(=O)[C@H](CC(C)C)NC(=O)[C@@H](N)Cc1ccccc1)C(C)C)C(=O)N[C@@H](C)C(=O)N[C@@H](CO)C(=O)N[C@@H](CCCCN)C(=O)N[C@H](C(=O)N[C@@H](Cc1ccccc1)C(=O)N1CCC[C@H]1C(=O)N[C@@H](C)C(=O)N[C@H](C(=O)N[C@@H](Cc1ccccc1)C(=O)N[C@@H](CCCCN)C(=O)N[C@@H](CCCCN)C(=O)N[C@H](C(=O)O)C(C)C)C(C)C)C(C)C [FLGKVFKLASKVFPAVFKKV]	
122 µM (≈ 256 µg/mL)	7.6 µM (≈ 16 µg/mL)	30.4 µM (≈ 64 µg/mL)	CC(C)C[C@H](NC(=O)[C@H](CCCCN)NC(=O)[C@H](Cc1ccccc1)NC(=O)[C@@H](NC(=O)[C@@H](NC(=O)CNC(=O)[C@H](CC(C)C)NC(=O)[C@@H](N)Cc1ccccc1)C(C)C)C(C)C)C(=O)N[C@@H](C)C(=O)N[C@@H](CO)C(=O)N[C@@H](CCCCN)C(=O)N[C@H](C(=O)N[C@H](C(=O)N1CCC[C@H]1C(=O)N[C@@H](C)C(=O)N[C@H](C(=O)N[C@@H](Cc1ccccc1)C(=O)NCC(=O)N[C@@H](CCCCN)C(=O)N[C@H](C(=O)O)C(C)C)C(C)C)C(C)C)C(C)C [FLGVVFKLASKVVPAVFGKV]	
> 125 µM		≥ 125 µM	CC[C@H](C)[C@H](N)C(=O)N[C@@H](C)C(=O)N[C@@H](CO)C(=O)N[C@@H](C)C(=O)N[C@H](C(=O)N1CCC[C@H]1C(=O)N[C@H](C(=O)N[C@@H](CS)C(=O)N[C@H](C(=O)N[C@@H](CCCCN)C(=O)NCC(=O)N[C@@H](CCCCN)C(=O)N[C@H](C(=O)N[C@@H](CO)C(=O)N[C@@H](CCCCN)C(=O)N[C@@H](CO)C(=O)N[C@@H](Cc1ccc(O)cc1)C(=O)N[C@H](C(=O)N[C@@H](CO)C(=O)N[C@H](C(=O)O)C(C)C)[C@@H](C)CC)[C@@H](C)CC)C(C)C)C(C)C)C(C)C [IASAVPVCVKGKISKSYISV]	
10 µM (≈ 26.5 µg/mL)	40 µM (≈ 106 µg/mL)		CC[C@H](C)[C@H](NC(=O)[C@H](CCCCN)NC(=O)[C@H](CS)NC(=O)[C@H](C)NC(=O)[C@@H](NC(=O)[C@H](Cc1ccccc1)NC(=O)CNC(=O)[C@H](CC(C)C)NC(=O)CNC(=O)[C@@H](NC(=O)[C@H](CCCCN)NC(=O)CNC(=O)[C@H](CC(C)C)NC(=O)[C@H](CC(N)=O)NC(=O)[C@H](CCCCN)NC(=O)[C@H](CC(C)C)NC(=O)[C@@H](NC(=O)[C@H](CO)NC(=O)[C@H](CC(C)C)NC(=O)[C@H](CCSC)NC(=O)[C@@H](N)CO)C(C)C)C(C)C)C(C)C)C(=O)N[C@@H](CC(N)=O)C(=O)N[C@@H](CCCCN)C(=O)N[C@@H](CCCCN)C(=O)N[C@@H](CS)C(=O)O [SMLSVLKNLGKVGLGFVACKINKKC]	MIC [2]: 40 µM (≈ 106 µg/mL)
10 µM (≈ 27.1 µg/mL)	20 µM (≈ 54.2 µg/mL)		CC[C@H](C)[C@H](NC(=O)[C@H](CCCCN)NC(=O)[C@H](CS)NC(=O)[C@H](CCCCN)NC(=O)[C@@H](NC(=O)[C@H](Cc1ccccc1)NC(=O)CNC(=O)[C@H](CC(C)C)NC(=O)CNC(=O)[C@@H](NC(=O)[C@H](CCCCN)NC(=O)CNC(=O)[C@H](CC(C)C)NC(=O)[C@H](CC(N)=O)NC(=O)[C@H](CCCCN)NC(=O)[C@H](CC(C)C)NC(=O)[C@@H](NC(=O)[C@H](CO)NC(=O)[C@H](CC(C)C)NC(=O)[C@H](CCSC)NC(=O)[C@@H](N)CO)C(C)C)C(C)C)C(C)C)C(=O)N[C@@H](CC(N)=O)C(=O)N[C@@H](CCCCN)C(=O)N[C@@H](CCC(N)=O)C(=O)N[C@@H](CS)C(=O)O [SMLSVLKNLGKVGLGFVKCKINKQC]	MIC [2]: 20 µM (≈ 54.2 µg/mL)

The next lines start with the compound.

SMILES	MIC [3]	MIC [4]	MIC [5]	also measured
CC(C)C[C@H](NC(=O)[C@@H](N)Cc1ccccc1)C(=O)NCC(=O)NCC(=O)N[C@H](C(=O)N[C@@H](Cc1ccccc1)C(=O)N[C@@H](CCCCN)C(=O)NCC(=O)N[C@@H](C)C(=O)N[C@@H](CO)C(=O)N[C@@H](CCCCN)C(=O)N[C@H](C(=O)N[C@@H](Cc1ccccc1)C(=O)N1CCC[C@H]1C(=O)N[C@@H](C)C(=O)N[C@H](C(=O)N[C@@H](Cc1ccccc1)C(=O)NCC(=O)N[C@@H](CCCCN)C(=O)N[C@H](C(=O)O)C(C)C)C(C)C)C(C)C)C(C)C [FLGGVFKGASKVFPAVFGKV]	> 125 µM	> 125 µM	≥ 125 µM	
CC(C)C[C@H](NC(=O)[C@@H](N)Cc1ccccc1)C(=O)NCC(=O)N[C@@H](CCCCN)C(=O)N[C@H](C(=O)N[C@@H](Cc1ccccc1)C(=O)N[C@@H](CCCCN)C(=O)NCC(=O)N[C@@H](C)C(=O)N[C@H](C(=O)N[C@@H](CCCCN)C(=O)N[C@H](C(=O)N[C@@H](Cc1ccccc1)C(=O)N1CCC[C@H]1C(=O)N[C@@H](C)C(=O)N[C@H](C(=O)N[C@@H](Cc1ccccc1)C(=O)NCC(=O)N[C@@H](CCCCN)C(=O)N[C@H](C(=O)O)C(C)C)C(C)C)C(C)C)C(C)C)C(C)C [FLGKVFKGAVKVFPAVFGKV]	59.9 µM (≈ 128 µg/mL)	> 59.9 µM	≥ 59.9 µM	
CC(C)C[C@H](NC(=O)[C@@H](N)Cc1ccccc1)C(=O)NCC(=O)N[C@H](C(=O)N[C@H](C(=O)N[C@@H](Cc1ccccc1)C(=O)N[C@@H](CCCCN)C(=O)N[C@@H](CCCCN)C(=O)N[C@@H](C)C(=O)N[C@@H](CO)C(=O)N[C@@H](CCCCN)C(=O)N[C@H](C(=O)N[C@@H](Cc1ccccc1)C(=O)N1CCC[C@H]1C(=O)N[C@@H](C)C(=O)N[C@H](C(=O)N[C@@H](Cc1ccccc1)C(=O)NCC(=O)N[C@@H](CCCCN)C(=O)N[C@H](C(=O)O)C(C)C)C(C)C)C(C)C)C(C)C)C(C)C [FLGVVFKKASKVFPAVFGKV]	118 µM (≈ 256 µg/mL)	> 118 µM	≥ 118 µM	
CC(C)C[C@H](NC(=O)[C@H](CC(C)C)NC(=O)[C@H](CCCCN)NC(=O)[C@H](CCCCN)NC(=O)[C@H](CC(C)C)NC(=O)[C@H](CC(=O)O)NC(=O)[C@H](CCCCN)NC(=O)[C@H](CC(C)C)NC(=O)[C@@H](N)Cc1ccccc1)C(N)=O [FLKDLKKLL]				MIC [6]: > 115 µM; MIC [7]: > 115 µM; MIC [8]: 14.3 µM (≈ 16 µg/mL); MIC [9]: > 115 µM
CC(C)C[C@H](NC(=O)CN)C(=O)N[C@@H](Cc1ccccc1)C(=O)NCC(=O)N[C@@H](CCCCN)C(=O)N[C@@H](CO)C(=O)N[C@@H](CO)C(=O)N[C@H](C(=O)N[C@@H](Cc1c[nH]c2ccccc12)C(=O)NCC(=O)N[C@@H](CCCN=C(N)N)C(=O)N[C@@H](CCCCN)C(=O)N[C@@H](Cc1ccc(O)cc1)C(=O)N[C@@H](Cc1ccc(O)cc1)C(=O)N[C@H](C(=O)N[C@@H](CC(=O)O)C(=O)N[C@@H](CC(C)C)C(=O)N[C@@H](C)C(=O)NCC(=O)N[C@@H](CS)C(=O)N[C@@H](C)C(=O)N[C@@H](CCCCN)C(=O)N[C@@H](C)C(=O)O)C(C)C)C(C)C [GLFGKSSVWGRKYYVDLAGCAKA]	5.09 µM (≈ 12.6 µg/mL)	2.54 µM (≈ 6.3 µg/mL)		MIC [1]: 2.54 µM (≈ 6.3 µg/mL); MIC [2]: 1.27 µM (≈ 3.15 µg/mL)
CC(C)C[C@H](NC(=O)[C@H](CO)NC(=O)[C@@H]1CCCN1)C(=O)N[C@@H](CC(C)C)C(=O)N[C@@H](Cc1ccc(O)cc1)C(=O)N[C@@H](CCCCN)C(=O)N[C@@H](C)C(=O)N[C@@H](CCCCN)C(=O)N[C@@H](C)C(=O)N[C@H](C(=O)N[C@@H](Cc1ccccc1)C(=O)N[C@@H](CS)C(=O)N[C@@H](CCCCN)C(=O)N1CCC[C@H]1C(=O)N[C@@H](CO)C(=O)N[C@@H](C)C(=O)N[C@H](C(=O)N[C@@H](C)C(=O)N[C@H](C(=O)N[C@@H](Cc1ccccc1)C(=O)O)C(C)C)C(C)C)C(C)C [PSLLYKAKAVFCKPSAVAVF]	> 59.8 µM		≥ 59.8 µM	
CC(C)C[C@H](NC(=O)[C@H](CCC(=O)O)NC(=O)[C@H](Cc1ccccc1)NC(=O)[C@H](CCC(=O)O)NC(=O)[C@H](C)NC(=O)[C@H](CCC(=O)O)NC(=O)[C@H](Cc1ccccc1)NC(=O)[C@H](CC(=O)O)NC(=O)[C@@H](NC(=O)[C@H](CC(=O)O)NC(=O)[C@H](CO)NC(=O)[C@H](CCCCN)NC(=O)[C@H](CCCN=C(N)N)NC(=O)[C@H](CCCCN)NC(=O)[C@@H](N)CCCN=C(N)N)C(C)C)C(=O)N[C@@H](Cc1ccccc1)C(=O)N[C@@H](CCC(=O)O)C(=O)N[C@@H](CC(=O)O)C(=O)N[C@@H](CC(=O)O)C(=O)N[C@@H](CC(=O)O)C(=O)O [RKRKSDVDFEAEFELFEDDD]	> 103 µM		≥ 103 µM	
CC[C@H](C)[C@H](NC(=O)[C@H](C)NC(=O)[C@H](CS)NC(=O)[C@H](Cc1ccc(O)cc1)NC(=O)[C@@H](NC(=O)[C@H](CO)NC(=O)[C@@H]1CCCN1C(=O)[C@@H](NC(=O)[C@@H](NC(=O)[C@H](CCCCN)NC(=O)[C@H](CO)NC(=O)[C@H](C)NC(=O)[C@@H](NC(=O)[C@H](CCCCN)NC(=O)CNC(=O)[C@@H](NC(=O)[C@@H](NC(=O)[C@@H](N)CO)C(C)C)[C@@H](C)CC)[C@@H](C)CC)C(C)C)C(C)C)C(C)C)C(=O)N[C@@H](CO)C(=O)N[C@@H](CCCCN)C(=O)O [SVIGKIASKVVPSVYCAISK]	> 125 µM		≥ 125 µM	
